{"source": "paper PMC4505687", "about": "“5-HT3 Receptor Brain-Type B-Subunits are Differentially Expressed in Heterologous Systems” (ACS Chemical Neuroscience, 2015)", "key": {"5-HT3A receptors [1]": {"molecular_target": "T1, 5-HT3A receptors (Homo sapiens, UniProt P46098)", "T1 construct": "expressed in transfected cells; host or cells: Xenopus laevis oocytes (cRNA from pGEMHE) or HEK293 cells (pcDNA3.1)", "T1 sequence (P46098 24-478)": "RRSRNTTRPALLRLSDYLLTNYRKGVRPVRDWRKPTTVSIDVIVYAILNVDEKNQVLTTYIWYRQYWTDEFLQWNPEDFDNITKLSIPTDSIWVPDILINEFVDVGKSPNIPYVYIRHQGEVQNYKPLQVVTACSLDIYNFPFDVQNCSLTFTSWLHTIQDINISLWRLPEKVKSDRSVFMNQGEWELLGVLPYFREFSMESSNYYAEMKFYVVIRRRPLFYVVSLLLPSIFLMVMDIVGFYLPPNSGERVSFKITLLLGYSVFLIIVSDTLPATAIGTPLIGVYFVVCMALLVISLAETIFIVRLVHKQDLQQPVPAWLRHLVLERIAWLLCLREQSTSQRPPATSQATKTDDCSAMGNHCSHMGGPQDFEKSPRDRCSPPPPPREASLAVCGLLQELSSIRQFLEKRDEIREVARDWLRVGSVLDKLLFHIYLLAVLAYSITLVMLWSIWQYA", "assay": "5-HT-induced macroscopic currents, two-electrode voltage-clamp in Xenopus oocytes", "format": "cell-based", "settings": "Hill slope, 5-HT3A receptors in oocytes", "experimental": "(§1) Xenopus laevis oocyte-positive females were purchased from NASCO (Fort Atkinson, WI) and maintained according to standard methods. Harvested stage V–VI Xenopus oocytes were washed in four changes of Ca-free ND96 (96 mM NaCl, 2 mM KCl, 1 mM MgCl2, 5 mM HEPES, pH 7.5), defolliculated in 1.5 mg mL^–1 collagenase Type 1A for approximately 2 h, washed again in four changes of ND96, and then stored in ND96 containing 2.5 mM sodium pyruvate, […] gentamycin, and 0.7 mM theophylline.\n(§2) cDNA was cloned into pGEMHE for oocyte expression, and pcDNA3.1 (Invitrogen, Paisley, U.K.) for expression in HEK 293 cells. Mutagenesis (Figure 1) was performed using QuikChange (Agilent Technologies Inc., Santa Clara, CA). cRNA was in vitro transcribed from linearized pGEMHE cDNA template using the mMessage mMachine T7 Transcription kit (Ambion, Austin, TX). 5-HT3A was linearized with SphI and 5-HT3B cDNA with NheI. Stage V and VI oocytes were injected with 50 nL of ∼400 ng μL^–1 cRNA, and currents were recorded 1–4 days postinjection. Ratios of 1:3 (5-HT3A:5-HT3B/5-HT3Br1/5-HT3Br2) were used for the expression of heteromeric receptors unless otherwise stated.\n(§3) Currents were recorded at a frequency of 5 kHz and filtered at 1 kHz. Microelectrodes were fabricated from borosilicate glass (GC120TF-10, Harvard Apparatus, Edenbridge, Kent, U.K.) using a one stage horizontal pull (P-87, Sutter Instrument Company, Novato, CA) and filled with 3 M KCl. Pipet resistances ranged from 1.0 to 2.0 MΩ. […] Drug application was via a simple gravity fed system calibrated to run at the same rate."}, "5-HT3ABr1 receptors [2]": {"molecular_target": "T2, 5-HT3ABr1 receptors (Homo sapiens, UniProt O95264+P46098)", "T2 sequence (P46098 24-478)": "T1 sequence (P46098 24-478)", "T2 sequence (O95264 1-430 isoform O95264-2)": "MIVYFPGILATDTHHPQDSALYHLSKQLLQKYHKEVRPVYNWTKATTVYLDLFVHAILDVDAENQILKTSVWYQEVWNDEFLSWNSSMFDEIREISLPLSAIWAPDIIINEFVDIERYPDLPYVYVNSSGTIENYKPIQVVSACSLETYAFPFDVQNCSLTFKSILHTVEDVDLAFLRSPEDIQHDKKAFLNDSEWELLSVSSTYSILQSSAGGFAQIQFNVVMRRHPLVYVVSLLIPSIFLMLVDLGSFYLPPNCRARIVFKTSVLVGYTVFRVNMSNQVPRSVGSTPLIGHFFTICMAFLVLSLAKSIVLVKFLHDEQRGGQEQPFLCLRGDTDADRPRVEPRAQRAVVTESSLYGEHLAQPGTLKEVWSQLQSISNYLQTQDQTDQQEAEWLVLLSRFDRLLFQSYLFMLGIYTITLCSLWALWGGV", "assay": "5-HT-induced macroscopic currents, two-electrode voltage-clamp in Xenopus oocytes", "format": "cell-based", "settings": "Hill slope, 5-HT3ABr1 receptors in oocytes", "experimental": "as §1, §2, §3"}, "5-HT3AB receptors [3]": {"molecular_target": "T3, 5-HT3AB receptors (Homo sapiens, UniProt O95264+P46098)", "T3 construct": "expressed in transfected cells; host or cells: Xenopus laevis oocytes (cRNA from pGEMHE) or HEK293 cells (pcDNA3.1), A:B ratio 1:3", "T3 sequence (P46098 24-478)": "T1 sequence (P46098 24-478)", "T3 sequence (O95264 22-441)": "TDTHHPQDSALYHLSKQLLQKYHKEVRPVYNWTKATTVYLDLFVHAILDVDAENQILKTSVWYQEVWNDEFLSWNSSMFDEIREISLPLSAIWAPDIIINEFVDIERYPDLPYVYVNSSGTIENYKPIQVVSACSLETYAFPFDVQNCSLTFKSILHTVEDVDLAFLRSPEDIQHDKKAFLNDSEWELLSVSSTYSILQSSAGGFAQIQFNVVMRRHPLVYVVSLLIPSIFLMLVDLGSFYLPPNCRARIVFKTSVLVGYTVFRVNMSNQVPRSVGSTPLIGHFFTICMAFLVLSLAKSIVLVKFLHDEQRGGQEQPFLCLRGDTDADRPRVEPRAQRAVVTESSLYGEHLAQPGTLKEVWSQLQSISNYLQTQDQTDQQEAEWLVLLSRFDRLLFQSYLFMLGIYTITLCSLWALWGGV", "assay": "5-HT-induced macroscopic currents, two-electrode voltage-clamp in Xenopus oocytes", "format": "cell-based", "settings": "Hill slope, 5-HT3AB receptors in oocytes", "experimental": "as §1, §2, §3"}, "5-HT3A receptors [4]": {"molecular_target": "T1, 5-HT3A receptors", "assay": "Fluorescent membrane potential dye (FlexStation) in transfected HEK293 cells", "format": "cell-based", "settings": "Hill slope, 5-HT3A receptors in HEK293 cells, mean ± SEM", "experimental": "(§4) Human embryonic kidney (HEK) 293 cells were maintained on 90 mm tissue culture plates at 37 °C and 7% CO2 in a humidified atmosphere. They were cultured in DMEM:F12 with GlutaMAX I media (Dulbecco’s modified Eagle’s Medium/Nutrient Mix F12 (1:1), Invitrogen, Paisley, U.K.) containing 10% fetal calf serum. Cells in 90 mm dishes were transfected using polyethylenimine (PEI). Then 30 μL of PEI (1 mg/mL), 4 μL of cDNA (1 mg/mL) and 1 mL of DMEM were incubated for 10 min at room temperature, added dropwise to a 80–90% confluent plate, and incubated for 2–3 days. For Flexstation studies, cells were transferred to 96-well plates and allowed to adhere overnight before use.\nas §2, with “[…] This was as previously described.[22] […] The cells” for “Ratios of 1:3 (5-HT3A:5-HT3B/5-HT3Br1/5-HT3Br2)”, “incubated at 37 °C” for “used”, “45 min, and then fluorescence was measured in a FlexStation (Molecular Devices) at 2 s intervals for 200 s. […] Analysis and curve fitting was performed using Prism (GraphPad Software, San Diego, CA, www.graphpad.com).” for “the expression of heteromeric receptors unless otherwise stated.”"}, "5-HT3ABr2 receptors [5]": {"molecular_target": "T4, 5-HT3ABr2 receptors (Homo sapiens, UniProt P46098)", "T4 construct": "expressed in transfected cells; host or cells: Xenopus laevis oocytes (cRNA from pGEMHE) or HEK293 cells (pcDNA3.1), A:Br2 ratio 1:3 unless otherwise stated", "T4 sequence (P46098 24-478)": "T1 sequence (P46098 24-478)", "assay": "Fluorescent membrane potential dye (FlexStation) in transfected HEK293 cells", "format": "cell-based", "settings": "Hill slope, 5-HT3ABr2 receptors in HEK293 cells, mean ± SEM", "experimental": "as §4\nas §2, with “[…] This was as previously described.[22] […] The cells” for “Ratios of 1:3 (5-HT3A:5-HT3B/5-HT3Br1/5-HT3Br2)”, “incubated at 37 °C” for “used”, “45 min, and then fluorescence was measured in a FlexStation (Molecular Devices) at 2 s intervals for 200 s. […] Analysis and curve fitting was performed using Prism (GraphPad Software, San Diego, CA, www.graphpad.com).” for “the expression of heteromeric receptors unless otherwise stated.”"}, "5-HT3ABr1 receptors [6]": {"molecular_target": "T2, 5-HT3ABr1 receptors", "assay": "Fluorescent membrane potential dye (FlexStation) in transfected HEK293 cells", "format": "cell-based", "settings": "Hill slope, 5-HT3ABr1 receptors in HEK293 cells, mean ± SEM", "experimental": "as §4\nas §2, with “[…] This was as previously described.[22] […] The cells” for “Ratios of 1:3 (5-HT3A:5-HT3B/5-HT3Br1/5-HT3Br2)”, “incubated at 37 °C” for “used”, “45 min, and then fluorescence was measured in a FlexStation (Molecular Devices) at 2 s intervals for 200 s. […] Analysis and curve fitting was performed using Prism (GraphPad Software, San Diego, CA, www.graphpad.com).” for “the expression of heteromeric receptors unless otherwise stated.”"}, "5-HT3AB receptors [7]": {"molecular_target": "T3, 5-HT3AB receptors", "assay": "Fluorescent membrane potential dye (FlexStation) in transfected HEK293 cells", "format": "cell-based", "settings": "Hill slope, 5-HT3AB receptors in HEK293 cells, mean ± SEM", "experimental": "as §4\nas §2, with “[…] This was as previously described.[22] […] The cells” for “Ratios of 1:3 (5-HT3A:5-HT3B/5-HT3Br1/5-HT3Br2)”, “incubated at 37 °C” for “used”, “45 min, and then fluorescence was measured in a FlexStation (Molecular Devices) at 2 s intervals for 200 s. […] Analysis and curve fitting was performed using Prism (GraphPad Software, San Diego, CA, www.graphpad.com).” for “the expression of heteromeric receptors unless otherwise stated.”"}, "[8]": {"test_system": "5-HT3 receptors (5-HT3A, 5-HT3AB, 5-HT3ABr1, 5-HT3ABr2)", "assay": "Competition binding against [3H]granisetron at different 5-HT3 receptors expressed in HEK293 cells", "procedure": "Transfected HEK 293 cells were scraped into 1 mL of ice-cold HEPES buffer (10 mM, pH 7.4) and frozen. […] For competition binding (8 point), reactions were incubated for at least 1 h at 4 °C. Reactions were terminated by vacuum filtration using a Brandel cell harvester onto GF/B filters presoaked in 0.3% polyethylenimine. Radioactivity was determined by scintillation counting using a Beckman BCLS6500 instrument (Fullerton, CA). Individual competition binding experiments were analyzed by iterative curve fitting using Prism."}, "5-HT3ABr2 receptors [9]": {"molecular_target": "T4, 5-HT3ABr2 receptors", "assay": "5-HT-induced macroscopic currents, two-electrode voltage-clamp in Xenopus oocytes", "format": "cell-based", "experimental": "as §1, §2, §3"}, "5-HT3A receptors [10]": {"molecular_target": "T1, 5-HT3A receptors", "settings": "cited from earlier work"}, "[11]": {"settings": "competition with 1 nM [3H]granisetron, values shown only in Figure 5"}}, "note": "Like-named read-outs stand apart in the source and are kept apart here. Marks after values point to notes of the source that are not given here."}
{"smiles": "NCCc1c[nH]c2ccc(O)cc12", "note": "[5-HT, 5-hydroxytryptamine]", "values": [{"measurement": "nH", "setting": "5-HT3A receptors [1]", "value": 2.6}, {"measurement": "nH", "setting": "5-HT3ABr1 receptors [2]", "value": 1.0}, {"measurement": "nH", "setting": "5-HT3AB receptors [3]", "value": 1.0}, {"measurement": "nH, parameters from functional data", "setting": "5-HT3A receptors [4]", "value": "3.6 ± 0.8"}, {"measurement": "nH, parameters from functional data", "setting": "5-HT3ABr2 receptors [5]", "value": "2.9 ± 0.4 ^c"}, {"measurement": "nH, parameters from functional data", "setting": "5-HT3ABr1 receptors [6]", "value": "1.5 ± 0.3 ^b"}, {"measurement": "nH, parameters from functional data", "setting": "5-HT3AB receptors [7]", "value": "1.3 ± 0.2 ^b"}]}
{"smiles": "CN1[C@@H]2CC[C@H]1C[C@@H](OC(=O)c1cc(Cl)cc(Cl)c1)C2", "note": "[MDL-72222]", "values": [{"measurement": "Ki, rank order of potency and comparison between receptor subtypes", "setting": "[8]; [11]", "value": "palonosetron > granisetron > MDL-72222 > mCPBG > d-TC"}]}
{"smiles": "COc1cc2c3cc1Oc1cc(ccc1O)C[C@@H]1c4c(cc(OC)c(O)c4Oc4ccc(cc4)C[C@@H]3N(C)CC2)CC[N+]1(C)C", "note": "[d-TC, d-tubocurarine]", "values": [{"measurement": "Ki, rank order of potency and comparison between receptor subtypes", "setting": "[8]", "value": "palonosetron > granisetron > MDL-72222 > mCPBG > d-TC"}]}
{"smiles": "NC(N)=NC(N)=Nc1cccc(Cl)c1", "note": "[mCPBG]", "values": [{"measurement": "Ki, rank order of potency and comparison between receptor subtypes", "setting": "[8]; [11]", "value": "palonosetron > granisetron > MDL-72222 > mCPBG > d-TC"}]}
{"smiles": "O=C1c2cccc3c2[C@H](CCC3)CN1[C@@H]1CN2CCC1CC2", "note": "[palonosetron]", "values": [{"measurement": "Ki, rank order of potency and comparison between receptor subtypes", "setting": "[8]; [11]", "value": "palonosetron > granisetron > MDL-72222 > mCPBG > d-TC"}]}
{"smiles": "C=C(C)[C@@H]1[C@H]2OC(=O)[C@@H]1[C@]1(O)C[C@H]3O[C@]34C(=O)O[C@H]2[C@]14C", "note": "[picrotoxinin]", "values": [{"measurement": "IC50", "setting": "5-HT3ABr2 receptors [9]", "value": 17, "unit": "µM"}, {"measurement": "IC50", "setting": "5-HT3A receptors [10]", "value": 11, "unit": "µM"}]}
